# How the values were obtained:
# [1] = healthy subjects; cited from earlier work
# [2] = Assay 3.2: PK profile, oral bioavailability and renal excretion in human (SAD, 14C i.v. microtracer); assay type: in vivo; details: human, SAD clinical trial, confirmed by intravenous microtracer
# Experimental: A Phase 1 single-ascending dose (SAD) clinical trial of Compound I′ (Form I), which converts to or dissolves to provide its soluble form Compound I in the body, was conducted in order to assess neprilysin inhibition for the treatment of a range of cardiovascular and renal diseases, including, e.g., chronic kidney disease, diabetic nephropathy, acute and chronic heart failure, heart failure with reduced ejection fraction, heart failure with preserved ejection fraction, post-myocardial infarction asymptomatic left ventricular dysfunction (post-MI asymptomatic LVD), subacute heart failure and resistant and isolated systolic hypertension. Safety and tolerability, pharmacokinetic (support for QD/BID dosing and non-renal excretion), pharmacodynamic (test for target engagement biomarkers cGMP and ANP), food effect, and absolute oral bioavailability and renal elimination using a ^14C intravenous microtracer, inter alia, were tested.
# The Phase 1 study was a double-blind, randomized placebo-controlled single ascending dose study in healthy male and female volunteers randomized in a 4:1 ratio. The study enrolled 56 healthy volunteers over multiple weeks for the ascending-dose portion, which included cohorts (n=10/cohort of 8 active and 2 placebo) administered single ascending doses of 50 mg, 100 mg, 200 mg, 400 mg and 600 mg. A sixth cohort (n=6) was administered i.v. microtracer and oral doses of 10 μg and 100 mg, respectively.
# human neprilysin (NEP) = human neprilysin (NEP) (Homo sapiens, UniProt P08473); assay: in vitro human neprilysin inhibitor activity (pKi); assay type: biochemical
# Text: One measure of the ability of a compound to inhibit NEP activity is the inhibition constant (pKi). The pKi value is the negative logarithm to base 10 of the dissociation constant (Ki), which is typically reported in molar units. The compound of the invention has a pKi at NEP≥9.0.
# The in vitro-to-in vivo extrapolation of drug behavior in a subject continues to improve (see, e.g., Chiba et al., AAPS J., 2009 June; 11 (2): 262-276). In the present invention, in vitro human neprilysin inhibitor activity was assessed in order to determine neprilysin inhibitory activity of Compound I and crystalline form I′. A threshold of pKi>9.0 was met. However, additional in vivo experiments were further performed in order to more accurately predict the behavior of Compound I and crystalline form I′ in a subject.
# NEP = biological target: T1, NEP (Homo sapiens, UniProt P08473); assay: Assay 4.1: NEP activity in human (cGMP), multiple-ascending dose study; assay type: in vivo; details: once-daily dose, trough (0 h) up to 24 h
# T1 construct: from tissue; host or cells: healthy human volunteers (in vivo)
# Experimental: The Phase 1 study was a double-blind, randomized placebo-controlled multiple ascending dose study in healthy male and female volunteers randomized in a 4:1 ratio. The study enrolled 50 healthy adult (19-55 years old) and elderly (65-80 years old) volunteers over multiple weeks for the ascending-dose portion, which included cohorts (n=10/cohort of 8 active and 2 placebo) administered (1) ascending doses of 50 mg, 100 mg, and 200 mg, (2) a dose of 10 mg studied in parallel with 200 mg for PK/PK, and (3) a dose of 100 mg for one elderly cohort. […] Additionally, renal elimination of Compound I was neglible after multiple dosing, e.g., <1% was observed on Day 1 and Day 14 for all subjects.
# Part of the MAD clinical studies was to determine the mechanism/duration of action of Compound I after dosing in humans.
# [3] = Stability study of crystalline form (25° C./60% RH and accelerated 40° C./75% RH); assay type: physicochemical
# Experimental: One challenge in pharmaceutical drug development relates to discovering a stable, crystalline form of a drug having a reasonably high melting point. One challenge of the present invention was that small crystals of the free acid of Compound I were difficult to obtain with the favorable physical properties mentioned above. Once achieved, the small crystals melted around 216° C. and an accelerated stability study of Compound I′ was conducted at the temperatures and % relative humidity (RH) reported below.
# [4] = Dynamic moisture sorption (DMS) assessment; assay type: physicochemical
# Experimental: In one embodiment, crystalline form I′ is characterized by the DMS isotherm in FIG. 4. […] The total moisture gain observed is less than 0.02% by weight when exposed to 5-90% relative humidity. No significant hysteresis is found between two consecutive sorption-desorption cycles. […] The crystalline form I′ remains non-hygroscopic and therefore may be characterized as anhydrous, non-hygroscopic or both.
# DMS measurements were performed using a VTI atmospheric microbalance, SGA-100 system (VTI Corp., Hialeah, FL 33016). A weighed sample was used and the humidity was lowest possible value (close to 0% relative humidity) at the start of the analysis. The DMS analysis consisted of a scan rate of 5% relative humidity/step over the full humidity range of 5-90%. The DMS run was performed isothermally at 25° C.
# Sequence of human neprilysin (NEP) (P08473 whole entry): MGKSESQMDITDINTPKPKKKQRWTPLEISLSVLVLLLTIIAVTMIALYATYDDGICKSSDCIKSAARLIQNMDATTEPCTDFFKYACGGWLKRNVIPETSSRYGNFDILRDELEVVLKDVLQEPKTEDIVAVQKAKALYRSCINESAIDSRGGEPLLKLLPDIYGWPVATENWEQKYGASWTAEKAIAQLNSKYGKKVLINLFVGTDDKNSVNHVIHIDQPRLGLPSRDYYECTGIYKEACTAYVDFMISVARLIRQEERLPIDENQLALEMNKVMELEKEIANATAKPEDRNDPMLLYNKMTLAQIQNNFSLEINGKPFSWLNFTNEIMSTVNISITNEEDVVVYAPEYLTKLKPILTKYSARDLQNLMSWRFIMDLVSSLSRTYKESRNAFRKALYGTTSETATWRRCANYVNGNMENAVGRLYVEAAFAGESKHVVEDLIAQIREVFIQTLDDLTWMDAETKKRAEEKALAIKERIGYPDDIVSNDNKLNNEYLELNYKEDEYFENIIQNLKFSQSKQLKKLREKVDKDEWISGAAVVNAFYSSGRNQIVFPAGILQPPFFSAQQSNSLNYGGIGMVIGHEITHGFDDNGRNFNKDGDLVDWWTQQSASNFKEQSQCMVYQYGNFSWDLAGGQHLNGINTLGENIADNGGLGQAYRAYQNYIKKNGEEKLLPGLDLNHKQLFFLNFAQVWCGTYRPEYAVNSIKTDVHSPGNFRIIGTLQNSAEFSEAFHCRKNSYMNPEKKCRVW
# T1 sequence (P08473 whole entry): as above
structure (smiles),measurement,setting,value
CCOC(=O)[C@H](C)C[C@@H](Cc1ccc(-c2ccccc2)cc1)NC(=O)CCC(=O)O [sacubitril],renal elimination,[1],60%
"CCOC[C@](C)(C[C@@H](Cc1ccc(-c2cc(Cl)ccc2F)cc1)NC(=O)c1cc(O)no1)C(=O)O [Compound I′, (2S,4R)-5-(5′-chloro-2′-fluoro-[1,1′-biphenyl]-4-yl)-2-(ethoxymethyl)-4-(3-hydroxyisoxazole-5-carboxamido)-2-methylpentanoic acid]",renal elimination (of total administered dose),[2],less than 1%
same,Ki,human neprilysin (NEP),≤ 1 nM
same,target engagement (plasma cGMP) on Day 14,NEP,target engagement of all doses at trough (0 h) as well as all doses measured up to 24 h
same,time for which the crystalline form remains stable,"[3]; 25° C., 60% RH",at least 18 months
same,Assay,"[3]; 25° C., 60% RH, 0 months",98.6 % (w/w)
same,Water Content,"[3]; 25° C., 60% RH, 0 months, LOQ = 0.2%",<LOQ
same,Assay,"[3]; 25° C., 60% RH, 3 months",98.5 % (w/w)
same,Assay,"[3]; 25° C., 60% RH, 6 months",99.2 % (w/w)
same,Water Content,"[3]; 25° C., 60% RH, 6 months, LOQ = 0.19%",<LOQ
same,Assay,"[3]; 25° C., 60% RH, 9 months",99.0 % (w/w)
same,Assay,"[3]; 25° C., 60% RH, 12 months",99.2 % (w/w)
same,Water Content,"[3]; 25° C., 60% RH, 12 months, LOQ = 0.19%",<LOQ
same,Assay,"[3]; 25° C., 60% RH, 18 months",99.1 % (w/w)
same,Assay,"[3]; 40° C., 75% RH (accelerated), 0 months",98.6 % (w/w)
same,Water Content,"[3]; 40° C., 75% RH (accelerated), 0 months, LOQ = 0.2%",<LOQ
same,Assay,"[3]; 40° C., 75% RH (accelerated), 1 month",98.5 % (w/w)
same,Assay,"[3]; 40° C., 75% RH (accelerated), 3 months",98.6 % (w/w)
same,Water Content,"[3]; 40° C., 75% RH (accelerated), 3 months, LOQ = 0.22%",<LOQ
same,Assay,"[3]; 40° C., 75% RH (accelerated), 6 months",99.0 % (w/w)
same,Water Content,"[3]; 40° C., 75% RH (accelerated), 6 months, LOQ = 0.19%",<LOQ
same,water detected,[3]; at 12-months,no quantifiable amount of water is detected
same,time for which the crystalline form remains stable,"[3]; measured by accelerated conditions of 40° C., 75% RH (6 months taken as equivalent to 2 years at 25° C., 60% RH)",at least 2 years
same,hygroscopicity (DMS isotherm),"[4]; 5-90% relative humidity, two sorption-desorption cycles",non-hygroscopic solid
same,total moisture gain,"[4]; exposed to 5-90% relative humidity, 25° C.",less than 0.02 % by weight

# Reference: patent US12351561B2, “Crystalline (2S,4R)-5-(5'-chloro-2'-fluoro-[1,1'-biphenyl]-4-yl)-2-(ethoxymethyl)-4-(3-hydroxyisoxazole-5-carboxamido)-2-methylpentanoic acid and uses thereof” (THERAVANCE BIOPHARMA R&D IP, LLC, priority 2016, dated 2025)
